Source: the supplement of paper PMC10307832

Key:
Assay in all cases: relative viability (nuclei count vs DMSO), 5 days (fraction); higher = more cells survive
Ibrutinib + Pictilisib = compound: C=CC(=O)N1CCC[C@@H](n2nc(-c3ccc(Oc4ccccc4)cc3)c3c(N)ncnc32)C1 [Ibrutinib] + CS(=O)(=O)N1CCN(Cc2cc3nc(-c4cccc5[nH]ncc45)nc(N4CCOCC4)c3s2)CC1 [Pictilisib] (partner 1 µM)
Outline: (§1)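 A single step with final 0.05% Triton X-100, 1% formaldehyde and 1 ug/ml Hoechst fixed the cells and stained nuclei 5 days after treatment. Lung cancer cell lines in 1536-well plates had been treated by pin tool the day after seeding with one drug alone or a fixed anchor-drug dose plus five library-drug doses (not always all listed) in √10 steps, and nuclei were counted on 4× images. Relative viability is the ratio of nuclei in treated wells to nuclei in vehicle wells, taken as the median of duplicate plates.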

Ibrutinib + Decitabine = compound: C=CC(=O)N1CCC[C@@H](n2nc(-c3ccc(Oc4ccccc4)cc3)c3c(N)ncnc32)C1 [Ibrutinib] + Nc1ncn([C@H]2C[C@H](O)[C@@H](CO)O2)c(=O)n1 [Decitabine] (partner 2 µM)
Outline: as §1

BMX-IN-1 + Pictilisib = compound: C=CC(=O)Nc1cc(-n2c(=O)ccc3cnc4ccc(-c5ccc(NS(C)(=O)=O)cc5)cc4c32)ccc1C [BMX-IN-1] + CS(=O)(=O)N1CCN(Cc2cc3nc(-c4cccc5[nH]ncc45)nc(N4CCOCC4)c3s2)CC1 [Pictilisib] (partner 1 µM)
Outline: as §1

PAC-1 + Pictilisib = compound: C=CCc1cccc(/C=N/NC(=O)CN2CCN(Cc3ccccc3)CC2)c1O [PAC-1] + CS(=O)(=O)N1CCN(Cc2cc3nc(-c4cccc5[nH]ncc45)nc(N4CCOCC4)c3s2)CC1 [Pictilisib] (partner 1 µM)
Outline: as §1

| Cell Line | relative viability (Ibrutinib + Pictilisib; first compound 0.01581 µM) | relative viability (Ibrutinib + Pictilisib; first compound 0.05 µM) | relative viability (Ibrutinib + Pictilisib; first compound 0.1581 µM) | relative viability (Ibrutinib + Pictilisib; first compound 0.5 µM) | relative viability (Ibrutinib + Decitabine; first compound 0.005 µM) | relative viability (Ibrutinib + Decitabine; first compound 0.01581 µM) | relative viability (Ibrutinib + Decitabine; first compound 0.05 µM) | relative viability (Ibrutinib + Decitabine; first compound 0.1581 µM) | relative viability (Ibrutinib + Decitabine; first compound 0.5 µM) | relative viability (BMX-IN-1 + Pictilisib; first compound 0.02 µM) | relative viability (BMX-IN-1 + Pictilisib; first compound 0.2 µM) | relative viability (BMX-IN-1 + Pictilisib; first compound 0.6325 µM) | relative viability (BMX-IN-1 + Pictilisib; first compound 2 µM) | relative viability (PAC-1 + Pictilisib; first compound 0.02 µM) | relative viability (PAC-1 + Pictilisib; first compound 0.06325 µM) | relative viability (PAC-1 + Pictilisib; first compound 0.2 µM) | relative viability (PAC-1 + Pictilisib; first compound 2 µM) | relative viability (Ibrutinib + Pictilisib; first compound 0.005 µM) |
| --- | --- | --- | --- | --- | --- | --- | --- | --- | --- | --- | --- | --- | --- | --- | --- | --- | --- | --- |
| NCI-H1915 | 0.978 | 0.891 | 0.609 | 1.02 | 0.269 | 0.272 | 0.275 | 0.272 | 0.255 | 0.953 | 0.898 | 1.14 | 1.04 | 0.875 | 1.02 | 0.929 | 0.951 | – |
| NCI-H2023 | 0.308 | 0.207 | 0.25 | 0.206 | 0.245 | 0.234 | 0.249 | 0.208 | 0.23 | 0.27 | 0.241 | 0.265 | 0.334 | 0.224 | 0.262 | 0.213 | 0.258 | 0.165 |
| NCI-H1755 | 0.421 | 0.424 | 0.389 | 0.362 | 0.739 | 0.716 | 0.704 | 0.713 | 0.7 | 0.446 | 0.541 | 0.498 | 0.423 | 0.445 | 0.434 | 0.391 | 0.438 | 0.418 |
| EPLC-272H | 0.291 | 0.299 | 0.194 | 0.267 | – | 0.318 | 0.327 | 0.381 | 0.275 | 0.35 | 0.31 | 0.304 | 0.377 | – | 0.349 | 0.32 | 0.268 | – |
| NCI-H1793 | 0.466 | 0.323 | 0.357 | 0.274 | 0.478 | 0.485 | 0.432 | 0.502 | 0.366 | 0.306 | 0.309 | 0.365 | 0.279 | 0.344 | 0.345 | 0.254 | 0.332 | – |
| NCI-H358 | 0.372 | 0.291 | 0.315 | 0.264 | 0.176 | 0.204 | – | 0.232 | 0.136 | 0.387 | 0.313 | 0.393 | 0.336 | 0.355 | 0.396 | 0.376 | 0.367 | 0.28 |
| HCC-827 | 0.909 | 1.02 | 1.08 | 0.458 | 0.275 | 0.345 | 0.262 | 0.287 | 0.195 | 1.03 | 1.15 | 1.04 | 1.05 | 1.12 | 1.01 | 0.99 | 0.983 | 0.916 |
| NCI-H2085 | 0.473 | 0.48 | 0.369 | 0.417 | 0.57 | 0.56 | 0.588 | – | 0.568 | 0.433 | 0.389 | 0.485 | 0.443 | 0.446 | 0.518 | 0.422 | 0.485 | 0.432 |
| LCLC-97TM1 | 0.203 | 0.263 | 0.156 | 0.18 | 0.251 | 0.226 | 0.236 | 0.205 | 0.208 | 0.189 | 0.197 | 0.274 | 0.207 | – | 0.206 | 0.178 | 0.231 | 0.114 |
| EKVX | 0.391 | 0.435 | 0.461 | 0.278 | 0.281 | 0.247 | 0.421 | 0.315 | 0.226 | 0.522 | 0.439 | 0.442 | 0.404 | 0.453 | 0.415 | 0.374 | 0.488 | 0.341 |
| PC-14 | 0.621 | 0.558 | 0.88 | 0.101 | 0.241 | 0.202 | 0.217 | 0.168 | 0.22 | 0.952 | 0.85 | 0.774 | 0.851 | 0.667 | 0.681 | 0.623 | 0.677 | 0.72 |
| NCI-H1355 | 0.474 | 0.481 | 0.26 | 0.343 | – | 0.355 | 0.367 | 0.318 | 0.363 | 0.374 | 0.443 | 0.487 | 0.434 | 0.386 | 0.475 | 0.393 | 0.492 | – |
| NCI-H1792 | 0.25 | 0.23 | 0.295 | 0.242 | – | 0.584 | 0.558 | 0.591 | 0.441 | 0.321 | 0.299 | 0.227 | 0.253 | 0.319 | 0.279 | 0.287 | 0.285 | 0.286 |
| NCI-H2009 | 0.846 | 0.742 | 0.468 | 0.759 | 0.375 | 0.373 | 0.372 | 0.46 | 0.415 | 1.19 | 0.946 | 0.905 | 0.765 | 0.832 | 0.866 | 0.792 | 0.789 | 0.593 |
| HARA | 0.515 | 0.383 | 0.412 | 0.232 | 0.5 | 0.486 | 0.376 | 0.468 | 0.264 | 0.4 | 0.284 | 0.482 | 0.397 | 0.414 | 0.376 | 0.323 | 0.413 | 0.185 |
